Legend:
[1] = test system: MDA 231 cells (doxorubicin resistant); assay: MTT cytotoxicity assay, doxorubicin with or without glucosamine; assay type: cell-based, human
Experimental: (§1) Human breast cancer cell line MDA-231 (doxorubicin resistant) was purchased from ATCC. MCF-7/DOX (doxorubicin resistant) was obtained from Dr. Kenneth H. Cowan (University of Nebraska Medical Center, 986805 Nebraska Medical Center, Omaha, Nebr. 68198-6805, USA). These cell lines were maintained in media supplemented with 10% fetal bovine serum (Gibco BRL), 1 mM sodium pyruvate (Gibco BRL), and 100 U/ml penicillin-streptomycin (Gibco BRL) at 37° C. in a humid 5% CO2 atmosphere and subcultured every two or three days.
(§2) An MTT assay was conducted through […] analysis on the reduction of yellow tetrazolium salt into purple formazan in the mitochondria of viable cells. Cells were seeded at a population of 1×10^5 cells/well in 24-well plates. After incubation for 24 hrs, the cells were exposed to doxorubicin. This anticancer agent was administered at a dose of 90 μM to MCF 7/DOX and 5 μM to MDA 231. A control was not treated with doxorubicin. On the very day of analysis, the culture medium in each well was substituted with a fresh medium containing MTT (3-(4,5-dimethylthiazol-2-yl)-2,5-diphenyltetrazolium) (Sigma) at a concentration of 0.5 mg per ml, followed by incubation therein for an additional 4 hrs. After the removal of the medium, 500 μl of DMSO was added to each well and the formazan crystals were dissolved using an orbital shaker. Cell viability was represented as a percentage of a test group to the control. These experiments were done in triplicate and repeated at least three times. For each experiment, the mean of three independent experiments and the standard deviations are given.
(§3) MTT assay was conducted to examine whether glucosamine increases the sensitivity of breast cancer cells to anticancer agents. MCF 7/DOX and MDA 231 cell lines, both resistant to anticancer agents, were treated with doxorubicin and glucosamine (1.0 to 10 mM) for 24 hrs. Controls were not treated with glucosamine, while doxorubicin was administered at concentrations of 5 μM to MDA-MB 231, and at a concentration of 90 μM to MCF-7/DOX.

[2] = test system: MCF 7/DOX cells (doxorubicin resistant); assay: as above; assay type: cell-based, human
Experimental: as §1, §2, §3

MCF 7 cells = assay: MTT cytotoxicity assay, anticancer agent-sensitive line; assay type: cell-based; conditions: MCF 7, sensitive to anticancer agent
Experimental: as §2
(§4) As measured through an MTT assay, almost all MCF 7 and MDA 468, both sensitive to anticancer agent, died, whereas apoptosis took place in about 50% of the anticancer agent-resistant cell lines.

MDA 468 cells = assay: as above; assay type: cell-based; conditions: MDA 468, sensitive to anticancer agent
Experimental: as §2, §4

[3] = test system: NF-κB activity in MCF7/DOX cells; assay: pNF-κB-SEAP reporter assay; assay type: cell-based, human; conditions: MCF-7/DOX; glucosamine 5 mM; 24 hrs
Experimental: (§5) MCF7/DOX and MDA231 cell lines were cultured in media supplemented with 10% fetal bovine serum (Gibco BRL), 1 mM sodium pyruvate (Gibco BRL) and 100 U/ml penicillin-streptomycin (Gibco BRL) at 37° C. in a humid 5% CO2 atmosphere. A pNF-κB-SEAP vector was transfected into the cells. 24 hrs after transfection, the cells were cultured in the presence of or absence of glucosamine (represented by GM, 5 mM) for 24 hrs. The cell culture was subjected to an SEAP assay, and the cells, after being harvested, were subjected to a β-galactosidase assay. The values obtained for the SEAP assay were corrected for transfection efficiency with a pGAL plasmid (1 μg). β-Galactosidase activity was measured to correct the SEAP activity. The SEAP assay was conducted according to the procedure set forth by the manufacturer (BD Biosciences Clontech, Co.). […] These experiments were done in triplicate and repeated at least three times. The values of each experiment are the mean of three independent experiments and the standard deviations.

[4] = test system: NF-κB activity in MDA231 cells; assay: pNF-κB-SEAP reporter assay; assay type: cell-based, human; conditions: MDA-231; glucosamine 5 mM; 24 hrs
Experimental: as §5

I-κBα in MCF7/DOX cells = assay: Western blotting against I-κBα, cytoplasm fractions; assay type: cell-based, human; conditions: MCF-7/DOX; cultured 1 hr; cytoplasm fraction
Experimental: (§6) Glucosamine was analyzed for its effect on I-κBα degradation. For this, MCF7/DOX and MDA231 cells were cultured for 1 hr and cytoplasm fractions thereof were harvested for Western blotting against I-κBα. Western blotting results are shown in the upper panel of FIG. 3B. Western blotting was quantified using a densitometer, and the results are depicted in the lower panel of FIG. 3B. For each value, the mean of three independent experiments and standard deviations are given.

I-κBα in MDA231 cells = assay: as above; assay type: cell-based, human; conditions: MDA-231; cultured 1 hr; cytoplasm fraction
Experimental: as §6

Compound	apoptosis of cells ([1]; MDA 231, doxorubicin 5 μM alone)	apoptosis of cells ([2]; MCF 7/DOX, doxorubicin 90 μM alone)	cell death (MCF 7 cells)	cell death (MDA 468 cells)	NF-κB activity [3]	NF-κB activity [4]	sensitivity to doxorubicin when treated with glucosamine vs not treated ([1]; MDA 231, doxorubicin 5 μM, glucosamine 1.0 to 10 mM, 24 hrs)	apoptosis frequency, anticancer agent in combination with glucosamine vs alone ([1]; chemoresistant cells, FIG. 2 (MDA231))	sensitivity to doxorubicin when treated with glucosamine vs not treated ([2]; MCF 7/DOX, doxorubicin 90 μM, glucosamine 1.0 to 10 mM, 24 hrs)	apoptosis frequency, anticancer agent in combination with glucosamine vs alone ([2]; chemoresistant cells, FIG. 1 (MCF/DOX))	I-κBα level (I-κBα in MCF7/DOX cells)	I-κBα level (I-κBα in MDA231 cells)
COc1cccc2c1C(=O)c1c(O)c3c(c(O)c1C2=O)C[C@@](O)(C(=O)CO)C[C@@H]3O[C@H]1C[C@H](N)[C@H](O)[C@H](C)O1 [doxorubicin, reference compound]	about 50%	about 50%	almost all	almost all	–	–	–	–	–	–	–	–
N[C@H]1C(O)O[C@H](CO)[C@@H](O)[C@@H]1O (stereo partly drawn) [glucosamine]	–	–	–	–	decrease	decrease	twice as (two times more=three times as) sensitive	twice as frequently	twice as (two times more=three times as) sensitive	twice as frequently	increase	increase
